# Laboratory results as given in patent US7183415B2, “Quinoline compound” (Takeda Pharmaceutical Company Limited, priority 2001, dated 2007).
row,melting point [°C],SMILES
1,207 to 211,"CNC(=O)CCC1CCN(Cc2cnc3cc(NC(=O)c4ccc(-c5ccc(F)cc5)cc4)c(C)cc3c2)CC1 [Example 254, 4′-fluoro-N-[6-methyl-3-({4-[3-(methylamino)-3-oxopropyl]-1-piperidinyl}methyl)-7-quinolinyl][1,1′-biphenyl]-4-carboxamide]"
2,227 to 230,"CCNC(=O)CCC1CCN(Cc2cnc3cc(NC(=O)c4ccc(-c5ccc(F)cc5)cc4)c(C)cc3c2)CC1 [Example 255, N-[3-({4-[3-(ethylamino)-3-oxopropyl]-1-piperidinyl}methyl)-6-methyl-7-quinolinyl]-4′-fluoro[1,1′-biphenyl]-4-carboxamide]"
3,193 to 196,"Cc1cc2cc(CN3CCC(CCC(=O)N(C)C)CC3)cnc2cc1NC(=O)c1ccc(-c2ccc(F)cc2)cc1 [Example 256, N-[3-({4-[3-(dimethylamino)-3-oxopropyl]-1-piperidinyl}methyl)-6-methyl-7-quinolinyl]-4′-fluoro[1,1′-biphenyl]-4-carboxamide]"
4,189 to 191,"Cc1cc2cc(CN3CCC(CCC(=O)N4CCCCC4)CC3)cnc2cc1NC(=O)c1ccc(-c2ccc(F)cc2)cc1 [Example 258, 4′-fluoro-N-[6-methyl-3-({4-[3-oxo-3-(1-piperidinyl)propyl]-1-piperidinyl}methyl)-7-quinolinyl][1,1′-biphenyl]-4-carboxamide]"
5,181,"CCN(CC)C(=O)CCCC1CCN(Cc2cnc3cc(NC(=O)c4ccc(-c5ccc(F)cc5)cc4)c(C)cc3c2)CC1 [Example 260, N-[3-({4-[4-(diethylamino)-4-oxobutyl]-1-piperidinyl}methyl)-6-methyl-7-quinolinyl]-4′-fluoro[1,1′-biphenyl]-4-carboxamide]"
6,194,"Cc1cc2cc(CN3CCC(CCCC(=O)N(C)C)CC3)cnc2cc1NC(=O)c1ccc(-c2ccc(F)cc2)cc1 [Example 262, N-[3-({4-[4-(dimethylamino)-4-oxobutyl]-1-piperidinyl}methyl)-6-methyl-7-quinolinyl]-4′-fluoro[1,1′-biphenyl]-4-carboxamide]"
7,228,"Cc1cc2cc(CN3CCC(CCCC(N)=O)CC3)cnc2cc1NC(=O)c1ccc(-c2ccc(F)cc2)cc1 [Example 264, N-(3-{[4-(4-amino-4-oxobutyl)-1-piperidinyl]methyl}-6-methyl-7-quinolinyl)-4′-fluoro[1,1′-biphenyl]-4-carboxamide]"
8,251,"CCNC(=O)CC1CCN(Cc2cnc3cc(NC(=O)c4ccc(-c5ccc(F)cc5)cc4)c(C)cc3c2)CC1 [Example 267, N-[3-({4-[2-(ethylamino)-2-oxoethyl]-1-piperidinyl}methyl)-6-methyl-7-quinolinyl]-4′-fluoro[1,1′-biphenyl]-4-carboxamide]"
9,249,"Cc1cc2cc(CN3CCC(CC(N)=O)CC3)cnc2cc1NC(=O)c1ccc(-c2ccc(F)cc2)cc1 [Example 270, N-(3-{[4-(2-amino-2-oxoethyl)-1-piperidinyl]methyl}-6-methyl-7-quinolinyl)-4′-fluoro[1,1′-biphenyl]-4-carboxamide]"
10,257,"CNC(=O)C1CCN(Cc2cnc3cc(NC(=O)c4ccc(-c5ccc(F)cc5)cc4)c(C)cc3c2)CC1 [Example 275, 1-[(7-{[(4′-fluoro-1,1′-biphenyl-4-yl)carbonyl]amino}-6-methyl-3-quinolinyl)methyl]-N-methylpiperidine-4-carboxamide]"

# The next lines start with the compound.
row,SMILES,melting point [°C]
1,"CCN(CC)C(=O)CCC1CCN(Cc2cnc3cc(NC(=O)c4ccc(-c5ccc(F)cc5)cc4)c(C)cc3c2)CC1 [Example 257, N-[3-({4-[3-(diethylamino)-3-oxopropyl]-1-piperidinyl}methyl)-6-methyl-7-quinolinyl]-4′-fluoro[1,1′-biphenyl]-4-carboxamide]",150 to 154
2,"Cc1cc2cc(CN3CCC(CCCC(=O)N4CCCCC4)CC3)cnc2cc1NC(=O)c1ccc(-c2ccc(F)cc2)cc1 [Example 259, 4′-fluoro-N-[6-methyl-3-({4-[4-oxo-4-(1-piperidinyl)butyl]-1-piperidinyl}methyl)-7-quinolinyl][1,1′-biphenyl]-4-carboxamide]",179
3,"CCNC(=O)CCCC1CCN(Cc2cnc3cc(NC(=O)c4ccc(-c5ccc(F)cc5)cc4)c(C)cc3c2)CC1 [Example 261, N-[3-({4-[4-(ethylamino)-4-oxobutyl]-1-piperidinyl}methyl)-6-methyl-7-quinolinyl]-4′-fluoro[1,1′-biphenyl]-4-carboxamide]",240
4,"Cc1cc2cc(CN3CCC(CC(=O)N4CCCCC4)CC3)cnc2cc1NC(=O)c1ccc(-c2ccc(F)cc2)cc1 [Example 265, 4′-fluoro-N-[6-methyl-3-({4-[2-oxo-2-(1-piperidinyl)ethyl]-1-piperidinyl}methyl)-7-quinolinyl][1,1′-biphenyl]-4-carboxamide]",216
5,"CCN(CC)C(=O)CC1CCN(Cc2cnc3cc(NC(=O)c4ccc(-c5ccc(F)cc5)cc4)c(C)cc3c2)CC1 [Example 266, N-[3-({4-[2-(diethylamino)-2-oxoethyl]-1-piperidinyl}methyl)-6-methyl-7-quinolinyl]-4′-fluoro[1,1′-biphenyl]-4-carboxamide]",197
6,"Cc1cc2cc(CN3CCC(CC(=O)N(C)C)CC3)cnc2cc1NC(=O)c1ccc(-c2ccc(F)cc2)cc1 [Example 268, N-[3-({4-[2-(dimethylamino)-2-oxoethyl]-1-piperidinyl}methyl)-6-methyl-7-quinolinyl]-4′-fluoro[1,1′-biphenyl]-4-carboxamide]",219
7,"CNC(=O)CC1CCN(Cc2cnc3cc(NC(=O)c4ccc(-c5ccc(F)cc5)cc4)c(C)cc3c2)CC1 [Example 269, 4′-fluoro-N-[6-methyl-3-({4-[2-(methylamino)-2-oxoethyl]-1-piperidinyl}methyl)-7-quinolinyl][1,1′-biphenyl]-4-carboxamide]",243
8,"Cc1cc2cc(CN3CCC(C(=O)N4CCCCC4)CC3)cnc2cc1NC(=O)c1ccc(-c2ccc(F)cc2)cc1 [Example 271, 4′-fluoro-N-(6-methyl-3-{[4-(1-piperidinylcarbonyl)-1-piperidinyl]methyl}-7-quinolinyl)[1,1′-biphenyl]-4-carboxamide]",250
9,"CCN(CC)C(=O)C1CCN(Cc2cnc3cc(NC(=O)c4ccc(-c5ccc(F)cc5)cc4)c(C)cc3c2)CC1 [Example 272, N,N-diethyl-1-[(7-{[(4′-fluoro-1,1′-biphenyl-4-yl)carbonyl]amino}-6-methyl-3-quinolinyl)methyl]piperidine-4-carboxamide]",203
10,"CCNC(=O)C1CCN(Cc2cnc3cc(NC(=O)c4ccc(-c5ccc(F)cc5)cc4)c(C)cc3c2)CC1 [Example 273, N-ethyl-1-[(7-{[(4′-fluoro-1,1′-biphenyl-4-yl)carbonyl]amino}-6-methyl-3-quinolinyl)methyl]piperidine-4-carboxamide]",254
11,"Cc1cc2cc(CN3CCC(C(=O)N(C)C)CC3)cnc2cc1NC(=O)c1ccc(-c2ccc(F)cc2)cc1 [Example 274, 1-[(7-{[(4′-fluoro-1,1′-biphenyl-4-yl)carbonyl]amino}-6-methyl-3-quinolinyl)methyl]-N,N-dimethylpiperidine-4-carboxamide]",229
